Source: ChEMBL document CHEMBL4321812, “Structure-based rational design of staurosporine-based fluorescent probe with broad-ranging kinase affinity for kinase panel application” (Bioorg Med Chem Lett, 2019)

Legend:
[1] = target: Serine/threonine-protein kinase pim-1 (Homo sapiens, UniProt P11309); test: Binding affinity to recombinant human full-length N-terminal his-tagged PIM1 expressed in baculovirus expression system using S6K2 peptide as substrate incubated for 1 hr by TR-FRET assay
[2] = target: Mitogen-activated protein kinase kinase kinase kinase 5 (Homo sapiens, UniProt Q9Y4K4); test: Binding affinity to recombinant full-length N-terminal His-FLAG-GST-tagged MAP4K5 (unknown origin) expressed in baculovirus infected Sf9 insect cells incubated for 1 hr by TR-FRET assay
[3] = target: Non-receptor tyrosine-protein kinase TNK1 (Homo sapiens, UniProt Q13470); test: Binding affinity to recombinant human N-terminal GST-tagged TNK1 (106 to 390 residues) expressed in baculovirus expression system using CSKtide as substrate incubated for 1 hr by TR-FRET assay
Chain of Non-receptor tyrosine-protein kinase TNK1 (Q13470 whole entry, the tested form may be a part): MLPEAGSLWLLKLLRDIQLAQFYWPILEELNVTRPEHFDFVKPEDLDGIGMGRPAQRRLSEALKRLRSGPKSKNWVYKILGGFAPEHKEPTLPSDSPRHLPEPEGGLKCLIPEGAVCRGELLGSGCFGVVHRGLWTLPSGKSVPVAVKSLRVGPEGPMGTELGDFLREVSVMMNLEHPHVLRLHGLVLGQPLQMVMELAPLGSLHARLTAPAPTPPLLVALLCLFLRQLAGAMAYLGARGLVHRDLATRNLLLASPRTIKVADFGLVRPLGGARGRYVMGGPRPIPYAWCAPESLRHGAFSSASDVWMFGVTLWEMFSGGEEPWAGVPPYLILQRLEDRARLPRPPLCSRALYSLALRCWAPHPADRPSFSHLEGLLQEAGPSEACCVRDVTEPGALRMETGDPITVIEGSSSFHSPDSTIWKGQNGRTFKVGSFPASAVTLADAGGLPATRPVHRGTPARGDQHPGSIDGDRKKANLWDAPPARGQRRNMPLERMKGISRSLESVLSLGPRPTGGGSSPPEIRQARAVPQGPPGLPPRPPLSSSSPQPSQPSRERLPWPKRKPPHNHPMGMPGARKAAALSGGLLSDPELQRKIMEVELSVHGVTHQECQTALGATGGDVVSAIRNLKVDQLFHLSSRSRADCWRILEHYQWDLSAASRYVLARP

[4] = target: Serine/threonine-protein kinase BRSK1 (Homo sapiens, UniProt Q8TDC3); test: Binding affinity to recombinant full-length N-terminal His-FLAG-GST-tagged BRSK1 (unknown origin) expressed in baculovirus infected Sf9 insect cells incubated for 1 hr by TR-FRET assay
Chain of Serine/threonine-protein kinase BRSK1 (Q8TDC3 whole entry): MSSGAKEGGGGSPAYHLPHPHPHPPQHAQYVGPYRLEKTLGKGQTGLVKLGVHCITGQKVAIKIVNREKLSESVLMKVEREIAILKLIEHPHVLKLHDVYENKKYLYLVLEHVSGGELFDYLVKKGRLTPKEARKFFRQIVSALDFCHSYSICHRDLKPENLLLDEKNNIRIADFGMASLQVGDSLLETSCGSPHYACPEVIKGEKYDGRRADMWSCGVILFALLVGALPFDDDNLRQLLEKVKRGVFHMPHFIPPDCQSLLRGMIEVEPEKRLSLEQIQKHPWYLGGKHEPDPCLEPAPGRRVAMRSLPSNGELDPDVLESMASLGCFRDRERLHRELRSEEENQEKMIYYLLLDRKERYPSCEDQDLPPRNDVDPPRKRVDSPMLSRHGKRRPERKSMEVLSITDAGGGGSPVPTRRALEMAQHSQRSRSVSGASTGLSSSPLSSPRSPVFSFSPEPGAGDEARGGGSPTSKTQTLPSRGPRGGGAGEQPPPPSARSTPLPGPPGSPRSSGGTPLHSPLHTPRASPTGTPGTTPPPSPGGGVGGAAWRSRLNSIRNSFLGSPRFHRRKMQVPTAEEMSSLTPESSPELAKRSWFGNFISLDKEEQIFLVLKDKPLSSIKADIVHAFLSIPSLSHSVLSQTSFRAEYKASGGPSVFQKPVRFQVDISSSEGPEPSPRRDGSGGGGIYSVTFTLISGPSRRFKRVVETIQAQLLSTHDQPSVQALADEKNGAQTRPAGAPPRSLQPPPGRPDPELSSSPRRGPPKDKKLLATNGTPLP

[5] = target: Receptor tyrosine-protein kinase erbB-4 (Homo sapiens, UniProt Q15303); test: Binding affinity to recombinant human full-length N-terminal GST-tagged ERBB4 expressed in baculovirus expression system using srctide as substrate incubated for 1 hr by TR-FRET assay
[6] = target: Serine/threonine-protein kinase Sgk2 (Homo sapiens, UniProt Q9HBY8); test: Binding affinity to recombinant full-length N-terminal His-FLAG-tagged SGK2 (unknown origin) expressed in baculovirus infected Sf9 insect cells incubated for 1 hr by TR-FRET assay
[7] = target: Serine/threonine-protein kinase 26 (Homo sapiens, UniProt Q9P289); test: Binding affinity to recombinant full-length N-terminal His-FLAG-tagged MST4 (unknown origin) expressed in baculovirus infected Sf9 insect cells incubated for 1 hr by TR-FRET assay
[8] = target: Serine/threonine-protein kinase TNNI3K (Homo sapiens, UniProt Q59H18); test: Binding affinity to recombinant N-terminal His-FLAG-GST-tagged TNNI3K (unknown origin) (1 to 727 residues) expressed in baculovirus infected Sf9 insect cells incubated for 1 hr by TR-FRET assay
[9] = target: Mitogen-activated protein kinase kinase kinase 7 (Homo sapiens, UniProt O43318); test: Binding affinity to recombinant full-length N-terminal His-FLAG-tagged MAP3K7 (unknown origin) expressed in baculovirus infected Sf9 insect cells incubated for 1 hr by TR-FRET assay
[10] = target: Epithelial discoidin domain-containing receptor 1 (Homo sapiens, UniProt Q08345); test: Binding affinity to recombinant N-terminal His-FLAG-GST-tagged DDR1 (unknown origin) (444 to 876 residues) expressed in baculovirus infected Sf9 insect cells incubated for 1 hr by TR-FRET assay
[11] = target: Serine/threonine-protein kinase PAK 5 (Homo sapiens, UniProt Q9P286); test: Binding affinity to recombinant N-terminal His-FLAG-GST-tagged PAK7 (unknown origin) (425 to 719 residues) expressed in baculovirus infected Sf9 insect cells incubated for 1 hr by TR-FRET assay
[12] = target: Homeodomain-interacting protein kinase 3 (Homo sapiens, UniProt Q9H422); test: Binding affinity to recombinant N-terminal His-FLAG-GST-tagged HIPK3 (unknown origin) (161 to 562 residues) expressed in baculovirus infected Sf9 insect cells incubated for 1 hr by TR-FRET assay
Aurora kinase A = Aurora kinase A (Homo sapiens, UniProt O14965); test: Binding affinity to recombinant full-length N-terminal His-FLAG-GST-tagged AURKA (unknown origin) expressed in baculovirus infected Sf9 insect cells incubated for 1 hr by TR-FRET assay
Chain of Aurora kinase A (O14965 whole entry): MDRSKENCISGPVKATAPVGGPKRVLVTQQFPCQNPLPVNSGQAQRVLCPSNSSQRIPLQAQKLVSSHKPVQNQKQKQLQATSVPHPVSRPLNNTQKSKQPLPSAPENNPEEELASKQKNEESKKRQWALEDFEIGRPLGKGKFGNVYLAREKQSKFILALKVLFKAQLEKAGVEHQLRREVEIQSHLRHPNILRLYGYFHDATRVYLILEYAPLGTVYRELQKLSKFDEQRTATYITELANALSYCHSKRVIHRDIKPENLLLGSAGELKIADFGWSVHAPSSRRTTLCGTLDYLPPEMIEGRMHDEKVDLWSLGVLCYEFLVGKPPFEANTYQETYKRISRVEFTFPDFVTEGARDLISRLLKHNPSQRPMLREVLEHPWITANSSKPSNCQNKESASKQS

[13] = target: Serine/threonine-protein kinase PAK 6 (Homo sapiens, UniProt Q9NQU5); test: Binding affinity to recombinant human full-length N-terminal GST-tagged PAK6 expressed in baculovirus expression system using SGKtide as substrate incubated for 1 hr by TR-FRET assay
[14] = target: Mitogen-activated protein kinase 12 (Homo sapiens, UniProt P53778); test: Binding affinity to recombinant full-length N-terminal His-FLAG-GST-tagged MAPK12 (unknown origin) expressed in baculovirus infected Sf9 insect cells incubated for 1 hr by TR-FRET assay
Chain of Mitogen-activated protein kinase 12 (P53778 whole entry): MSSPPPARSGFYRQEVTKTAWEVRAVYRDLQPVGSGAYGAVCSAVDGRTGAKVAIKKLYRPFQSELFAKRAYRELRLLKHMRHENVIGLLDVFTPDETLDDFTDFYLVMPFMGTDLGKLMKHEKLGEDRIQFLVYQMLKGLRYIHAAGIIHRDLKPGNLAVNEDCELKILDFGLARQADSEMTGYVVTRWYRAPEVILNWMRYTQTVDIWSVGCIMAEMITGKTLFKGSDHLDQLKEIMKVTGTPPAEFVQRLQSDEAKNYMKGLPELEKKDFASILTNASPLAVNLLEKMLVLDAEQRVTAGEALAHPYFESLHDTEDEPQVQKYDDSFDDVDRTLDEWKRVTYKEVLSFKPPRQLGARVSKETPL

[15] = target: 3-phosphoinositide-dependent protein kinase 1 (Homo sapiens, UniProt O15530); test: Binding affinity to recombinant full-length N-terminal His-FLAG-GST-tagged PDPK1 (unknown origin) expressed in baculovirus infected Sf9 insect cells incubated for 1 hr by TR-FRET assay
[16] = target: Tyrosine-protein kinase Lck (Homo sapiens, UniProt P06239); test: Binding affinity to recombinant human full length N-terminal GST-tagged LCK expressed in baculovirus expression system using srctide as substrate incubated for 1 hr by TR-FRET assay
Insulin receptor = Insulin receptor (Homo sapiens, UniProt P06213); test: Binding affinity to recombinant full-length N-terminal His-FLAG-GST-tagged INSR (unknown origin) (1005 to 1310 residues) expressed in baculovirus infected Sf9 insect cells incubated for 1 hr by TR-FRET assay
Chain of Insulin receptor (P06213 28-758 limits assumed): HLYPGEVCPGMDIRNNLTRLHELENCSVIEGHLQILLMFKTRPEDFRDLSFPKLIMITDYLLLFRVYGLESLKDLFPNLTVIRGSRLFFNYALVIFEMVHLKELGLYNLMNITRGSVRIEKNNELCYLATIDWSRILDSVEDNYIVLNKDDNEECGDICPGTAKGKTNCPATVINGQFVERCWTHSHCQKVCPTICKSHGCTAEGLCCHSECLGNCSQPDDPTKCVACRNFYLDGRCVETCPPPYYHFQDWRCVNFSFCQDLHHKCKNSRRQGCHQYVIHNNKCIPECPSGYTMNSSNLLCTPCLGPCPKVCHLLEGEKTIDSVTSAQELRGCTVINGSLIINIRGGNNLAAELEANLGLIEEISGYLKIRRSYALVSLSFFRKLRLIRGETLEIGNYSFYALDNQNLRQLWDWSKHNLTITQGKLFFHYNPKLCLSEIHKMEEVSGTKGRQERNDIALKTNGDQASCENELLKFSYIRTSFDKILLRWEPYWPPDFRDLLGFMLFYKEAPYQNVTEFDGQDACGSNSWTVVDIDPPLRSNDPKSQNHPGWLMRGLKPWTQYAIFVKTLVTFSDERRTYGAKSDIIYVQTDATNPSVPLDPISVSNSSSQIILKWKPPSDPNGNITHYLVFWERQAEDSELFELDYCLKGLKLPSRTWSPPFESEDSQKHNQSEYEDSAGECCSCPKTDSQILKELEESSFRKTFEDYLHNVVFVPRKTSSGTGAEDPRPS
Chain of Insulin receptor (P06213 763-1382 limits assumed): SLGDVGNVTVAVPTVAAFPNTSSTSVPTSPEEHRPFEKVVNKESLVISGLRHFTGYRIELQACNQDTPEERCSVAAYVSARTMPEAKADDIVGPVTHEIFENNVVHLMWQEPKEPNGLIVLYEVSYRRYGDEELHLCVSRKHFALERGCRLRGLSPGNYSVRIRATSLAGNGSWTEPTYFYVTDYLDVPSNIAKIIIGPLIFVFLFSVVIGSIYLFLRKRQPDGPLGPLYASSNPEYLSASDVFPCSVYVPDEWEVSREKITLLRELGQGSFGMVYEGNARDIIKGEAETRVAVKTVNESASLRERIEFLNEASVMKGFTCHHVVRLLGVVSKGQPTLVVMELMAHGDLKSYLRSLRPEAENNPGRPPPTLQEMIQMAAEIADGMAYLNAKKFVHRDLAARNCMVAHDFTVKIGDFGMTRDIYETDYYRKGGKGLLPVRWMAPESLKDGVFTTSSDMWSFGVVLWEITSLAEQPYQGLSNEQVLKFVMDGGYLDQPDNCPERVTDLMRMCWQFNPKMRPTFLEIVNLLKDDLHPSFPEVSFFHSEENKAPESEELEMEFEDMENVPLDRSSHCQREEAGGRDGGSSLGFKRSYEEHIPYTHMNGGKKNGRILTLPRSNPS

[17] = target: Serine/threonine-protein kinase TAO3 (Homo sapiens, UniProt Q9H2K8); test: Binding affinity to recombinant human full length N-terminal GST-tagged TAOK3 expressed in baculovirus expression system using PKC-epsilon peptide as substrate incubated for 1 hr by TR-FRET assay
[18] = target: Dual specificity tyrosine-phosphorylation-regulated kinase 1A (Homo sapiens, UniProt Q13627); test: Binding affinity to recombinant full-length N-terminal His-FLAG-GST-tagged DYRK1A (unknown origin) expressed in baculovirus infected Sf9 insect cells incubated for 1 hr by TR-FRET assay
[19] = target: Glycogen synthase kinase-3 alpha (Homo sapiens, UniProt P49840); test: Binding affinity to recombinant full-length N-terminal His-GST-tagged GSK3A (unknown origin) expressed in baculovirus infected Sf9 insect cells incubated for 1 hr by TR-FRET assay
[20] = target: Calcium/calmodulin-dependent protein kinase type II subunit alpha (Homo sapiens, UniProt Q9UQM7); test: Binding affinity to recombinant human full-length N-terminal GST-tagged CAMK2A expressed in baculovirus expression system using GS peptide as substrate incubated for 1 hr in presence of calmodulin by TR-FRET assay
Chain of Calcium/calmodulin-dependent protein kinase type II subunit alpha (Q9UQM7 whole entry, the tested form may be a part): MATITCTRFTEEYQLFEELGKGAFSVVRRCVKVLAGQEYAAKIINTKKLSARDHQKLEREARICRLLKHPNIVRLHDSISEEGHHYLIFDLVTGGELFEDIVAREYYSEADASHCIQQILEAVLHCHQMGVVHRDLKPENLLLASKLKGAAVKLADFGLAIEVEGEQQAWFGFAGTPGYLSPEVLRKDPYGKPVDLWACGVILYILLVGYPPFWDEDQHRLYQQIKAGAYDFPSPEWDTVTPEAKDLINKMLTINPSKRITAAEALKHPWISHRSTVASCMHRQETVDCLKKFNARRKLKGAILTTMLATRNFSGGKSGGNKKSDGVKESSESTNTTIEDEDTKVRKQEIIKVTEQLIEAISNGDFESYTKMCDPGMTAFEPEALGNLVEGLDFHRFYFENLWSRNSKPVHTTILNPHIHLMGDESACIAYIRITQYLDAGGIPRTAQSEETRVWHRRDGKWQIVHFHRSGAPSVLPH

[21] = target: Dual specificity mitogen-activated protein kinase kinase 6 (Homo sapiens, UniProt P52564); test: Binding affinity to recombinant human full length N-terminal GST-tagged MAP2K6 expressed in baculovirus expression system using p38alpha (9 to 352 residues) as substrate incubated for 1 hr by TR-FRET assay
Chain of Dual specificity mitogen-activated protein kinase kinase 6 (P52564 whole entry, the tested form may be a part): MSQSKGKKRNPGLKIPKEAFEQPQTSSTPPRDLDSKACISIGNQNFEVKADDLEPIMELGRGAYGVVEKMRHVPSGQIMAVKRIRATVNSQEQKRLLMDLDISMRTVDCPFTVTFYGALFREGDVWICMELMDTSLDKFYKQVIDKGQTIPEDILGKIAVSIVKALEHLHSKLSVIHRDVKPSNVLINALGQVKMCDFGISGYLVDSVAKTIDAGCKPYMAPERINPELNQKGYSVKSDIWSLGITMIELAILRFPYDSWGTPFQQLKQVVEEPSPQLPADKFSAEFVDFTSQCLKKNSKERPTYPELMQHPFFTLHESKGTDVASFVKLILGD

[22] = target: MAP/microtubule affinity-regulating kinase 3 (Homo sapiens, UniProt P27448); test: Binding affinity to recombinant full-length N-terminal His-FLAG-GST-tagged MARK3 (unknown origin) expressed in baculovirus infected Sf9 insect cells incubated for 1 hr by TR-FRET assay
[23] = target: Ribosomal protein S6 kinase alpha-2 (Homo sapiens, UniProt Q15349); test: Binding affinity to recombinant human full length N-terminal GST-tagged RPS6KA2 expressed in baculovirus expression system using S6K peptide as substrate incubated for 1 hr by TR-FRET assay

Chain of Serine/threonine-protein kinase pim-1 (P11309 whole entry): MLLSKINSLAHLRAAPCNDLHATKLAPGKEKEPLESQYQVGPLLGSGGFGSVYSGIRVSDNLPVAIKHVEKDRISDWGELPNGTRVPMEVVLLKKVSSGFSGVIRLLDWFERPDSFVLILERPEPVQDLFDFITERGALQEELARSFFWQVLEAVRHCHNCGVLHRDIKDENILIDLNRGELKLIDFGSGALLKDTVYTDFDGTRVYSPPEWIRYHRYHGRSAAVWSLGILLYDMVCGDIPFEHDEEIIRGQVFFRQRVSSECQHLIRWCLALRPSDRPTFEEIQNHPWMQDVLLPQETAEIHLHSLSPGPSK

Structure (SMILES)	Kd [1]	Kd [2]	Kd [3]	Kd [4]	Kd [5]	Kd [6]	Kd [7]	Kd [8]	Kd [9]	Kd [10]	Kd [11]	Kd [12]	Kd (Aurora kinase A)	Kd [13]	Kd [14]	Kd [15]	Kd [16]	Kd (Insulin receptor)	Kd [17]	Kd [18]	further results
CO[C@@H]1[C@H](NCCOCCOCCOCCNC(=O)CCC2=[N+]3C(=Cc4c(C)cc(C)n4[B-]3(F)F)C=C2)C[C@H]2O[C@]1(C)n1c3ccccc3c3c4c(c5c6ccccc6n2c5c31)C(=O)NC4	207 nM	87 nM	4 nM	109 nM	496 nM	1220 nM	687 nM	844 nM	44 nM	674 nM	40 nM	798 nM	45 nM	22 nM	948 nM	8 nM	94 nM	1860 nM	360 nM	138 nM	Kd [19]: 329 nM; Kd [20]: 15 nM; Kd [21]: 28 nM; Kd [22]: 13 nM; Kd [23]: 8 nM
CO[C@@H]1[C@H](N(C)CCOCCOCCOCCNC(=O)CCC2=[N+]3C(=Cc4c(C)cc(C)n4[B-]3(F)F)C=C2)C[C@H]2O[C@]1(C)n1c3ccccc3c3c4c(c5c6ccccc6n2c5c31)C(=O)NC4	285 nM	377 nM	13 nM	194 nM	798 nM	1770 nM	983 nM	1200 nM	60 nM	888 nM	53 nM	1030 nM	51 nM	25 nM	1020 nM	8 nM	92 nM	1690 nM	293 nM	102 nM	Kd [19]: 213 nM; Kd [20]: 9 nM; Kd [21]: 16 nM; Kd [22]: 6 nM; Kd [23]: 4 nM
